≈ marks a conversion by molar mass, not a printed value. Calls of active or inactive are those of the source. The rule behind the calls is not given here.
What was measured:
[1] = system: KB; assay: Cytotoxicity against human KB cells; format: functional, cell-based
[2] = system: Aspergillus oryzae; assay: Antifungal activity against Aspergillus oryzae by agar diffusion assay; format: functional, organism-based
[3] = system: Candida albicans; assay: Antifungal activity against Candida albicans by agar diffusion assay; format: functional, organism-based
[4] = system: Penicillium chrysogenum; assay: Antifungal activity against Penicillium notatum by agar diffusion assay; format: functional, organism-based
[5] = system: Saccharomyces cerevisiae; assay: Antifungal activity against Saccharomyces cerevisiae by agar diffusion assay; format: functional, organism-based
[6] = system: LoVo; assay: Cytotoxicity against human LoVo cells; format: functional

CO[C@H]([C@H](C)/C=C/N(C)C=O)[C@@H](C)C(=O)CC[C@H](C)[C@H](O)[C@H](C)[C@H]1OC(=O)/C=C/C(C)=C/C[C@H](O)C[C@@H]2C=CC[C@@H](C[C@H](OC)[C@@H](C)[C@@H](OC)C[C@@H](O)[C@@H]1C)O2
IC50 [1]: 1 ng/mL (≈ 1.26 nM)
Activity [2]: Active
Activity [3]: Active
Activity [4]: Active
Activity [5]: Active

CO[C@H]([C@H](C)/C=C/N(C)C=O)[C@@H](C)C(=O)CC[C@H](C)[C@H](O)[C@H](C)[C@H]1OC(=O)/C=C/C(C)=C/[C@H](O)[C@H](OC)C[C@@H]2C=CC[C@@H](C[C@H](OC)[C@@H](CO)[C@@H](OC)C[C@@H](OC)[C@@H]1C)O2
IC50 [1]: 1 ng/mL (≈ 1.17 nM)
Activity [2]: Active
Activity [3]: Active
Activity [4]: Active
Activity [5]: Active

CO[C@H]([C@H](C)/C=C/N(C)C=O)[C@@H](C)C(=O)CC[C@H](C)[C@H](O)[C@H](C)[C@H]1OC(=O)/C=C/C(C)=C/[C@H](O)[C@H](O)C[C@@H]2C=CC[C@@H](C[C@H](OC)[C@@]3(CO3)[C@@H](OC)C[C@@H](OC)[C@@H]1C)O2 [6-HYDROXYSCYTOPHYCIN B]
IC50 [1]: 1 ng/mL (≈ 1.2 nM)
Activity [2]: Active
Activity [3]: Active
Activity [4]: Active
Activity [5]: Active

CO[C@H]([C@H](C)/C=C/N(C)C=O)[C@@H](C)C(O)CC[C@H](C)[C@H](O)[C@H](C)[C@H]1OC(=O)/C=C/C(C)=C/C[C@H](O)C[C@@H]2C=CC[C@@H](C[C@H](OC)[C@@]3(CO3)[C@@H](OC)C[C@@H](OC)[C@@H]1C)O2 (stereo partly specified) [SCYTOPHYCIN A]
IC50 [1]: 1 ng/mL (≈ 1.22 nM)

CO[C@H]([C@H](C)/C=C/N(C)C=O)[C@@H](C)C(=O)CC[C@H](C)[C@H](O)[C@H](C)[C@H]1OC(=O)/C=C/C(C)=C/C[C@H](O)C[C@@H]2C=CC[C@@H](C[C@H](OC)[C@@]3(CO3)[C@@H](OC)C[C@@H](OC)[C@@H]1C)O2 [SCYTOPHYCIN B]
IC50 [1]: 1 ng/mL (≈ 1.22 nM)

CO[C@H]([C@H](C)/C=C/N(C)C=O)[C@@H](C)C(=O)CC[C@H](C)[C@H](O)[C@H](C)[C@H]1OC(=O)/C=C/C(C)=C/C[C@H](O)C[C@@H]2C=CC[C@@H](C[C@H](OC)[C@@H](C)[C@@H](OC)C[C@@H](OC)[C@@H]1C)O2 [SCYTOPHYCIN C]
IC50 [1]: 10 ng/mL (≈ 12.4 nM)

CO[C@H]([C@H](C)/C=C/N(C)C=O)[C@@H](C)C(=O)CC[C@H](C)[C@H](O)[C@H](C)[C@H]1OC(=O)/C=C/C(C)=C/C[C@H](O)C[C@@H]2C=CC[C@@H](C[C@H](OC)[C@](C)(O)[C@@H](OC)C[C@@H](OC)[C@@H]1C)O2 [SCYTOPHYCIN D]
IC50 [1]: 10 ng/mL (≈ 12.2 nM)

CO[C@H]([C@H](C)/C=C/N(C)C=O)[C@@H](C)C(=O)CC[C@H](C)[C@H](O)[C@H](C)[C@H]1OC(=O)/C=C/C(C)=C/C[C@H](O)C[C@@H]2C=CC[C@@H](C[C@H](OC)[C@@H](CO)[C@@H](OC)C[C@@H](OC)[C@@H]1C)O2 [SCYTOPHYCIN E]
IC50 [1]: 10 ng/mL (≈ 12.2 nM)
MIC [6]: 10 ng/mL (≈ 12.2 nM)

CO[C@H]([C@H](C)/C=C/N(C)C=O)[C@@H](C)C(=O)CC[C@H](C)[C@H](O)[C@H](C)[C@H]1OC(=O)/C=C/C(C)=C/[C@H](O)[C@H](OC)C[C@@H]2C=CC[C@@H](C[C@H](OC)[C@@]3(CO3)[C@@H](OC)C[C@@H](OC)[C@@H]1C)O2 [TOLYTOXIN]
IC50 [1]: 1 ng/mL (≈ 1.18 nM)
Activity [2]: Active
Activity [3]: Active
Activity [4]: Active
Activity [5]: Active

Source: ChEMBL document CHEMBL1158929, “Tolytoxin and new scytophycins from three species of Scytonema” (J Nat Prod, 1990)
